Article PMC7253177, “Gain of channel function and modified gating properties in TRPM3 mutants causing intellectual disability and epilepsy” (eLife, 2020)

Target: T1, WT human TRPM3 (Homo sapiens, UniProt Q9HCF6)
T1 construct: expressed in transfected cells; host or cells: HEK293T
T1 sequence (Q9HCF6 1-1325 isoform Q9HCF6-10): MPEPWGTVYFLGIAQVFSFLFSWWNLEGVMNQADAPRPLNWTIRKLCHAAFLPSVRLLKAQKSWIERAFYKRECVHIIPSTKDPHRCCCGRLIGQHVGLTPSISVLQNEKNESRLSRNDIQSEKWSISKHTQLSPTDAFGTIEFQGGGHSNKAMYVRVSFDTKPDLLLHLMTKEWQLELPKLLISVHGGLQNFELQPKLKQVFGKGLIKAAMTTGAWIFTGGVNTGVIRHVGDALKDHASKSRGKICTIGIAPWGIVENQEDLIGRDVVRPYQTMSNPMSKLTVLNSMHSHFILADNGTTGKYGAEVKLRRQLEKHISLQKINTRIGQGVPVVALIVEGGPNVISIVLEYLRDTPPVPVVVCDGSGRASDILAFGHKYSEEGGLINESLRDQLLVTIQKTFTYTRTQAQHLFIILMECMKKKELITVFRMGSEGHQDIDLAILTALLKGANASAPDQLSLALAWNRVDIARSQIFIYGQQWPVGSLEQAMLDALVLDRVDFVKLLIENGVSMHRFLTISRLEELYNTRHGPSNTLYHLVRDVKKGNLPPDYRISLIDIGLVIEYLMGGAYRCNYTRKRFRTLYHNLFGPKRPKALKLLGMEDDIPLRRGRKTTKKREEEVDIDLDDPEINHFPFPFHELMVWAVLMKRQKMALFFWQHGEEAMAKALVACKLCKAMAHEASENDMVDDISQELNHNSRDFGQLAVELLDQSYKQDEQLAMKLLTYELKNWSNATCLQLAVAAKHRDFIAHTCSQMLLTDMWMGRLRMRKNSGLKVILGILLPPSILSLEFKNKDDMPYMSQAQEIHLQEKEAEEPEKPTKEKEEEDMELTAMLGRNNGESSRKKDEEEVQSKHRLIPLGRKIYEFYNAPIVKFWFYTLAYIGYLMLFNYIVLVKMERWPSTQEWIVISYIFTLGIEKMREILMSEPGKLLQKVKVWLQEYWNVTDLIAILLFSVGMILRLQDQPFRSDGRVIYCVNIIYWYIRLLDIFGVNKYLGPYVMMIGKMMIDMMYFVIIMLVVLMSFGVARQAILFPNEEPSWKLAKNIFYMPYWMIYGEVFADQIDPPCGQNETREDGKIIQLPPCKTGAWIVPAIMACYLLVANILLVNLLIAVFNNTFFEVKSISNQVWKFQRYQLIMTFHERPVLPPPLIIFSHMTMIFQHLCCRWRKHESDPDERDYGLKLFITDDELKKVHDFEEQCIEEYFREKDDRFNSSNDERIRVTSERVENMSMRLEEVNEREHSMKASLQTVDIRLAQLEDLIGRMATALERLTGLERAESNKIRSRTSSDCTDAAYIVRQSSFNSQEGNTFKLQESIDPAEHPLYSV
Test: Whole-cell patch clamp, HEK293T cells expressing WT hTRPM3
Assay type: cell-based
Conditions: WT
Procedure: HEK293T cells ([Graham et al., 1977]) were cultured as described previously ([Vriens et al., 2007]) and used up in passage number 14. HEK293T cells were tested for the lack of mycoplasma and transiently transfected with 2 µg of DNA using TransIT transfection reagent (Mirus) 36–48 hr before the measurements. In case of co-cultures a ratio of 1:1 between hTRPM3-YFP WT and mutants-YFP DNA was used.
Standard whole-cell patch-clamp recordings were performed with an EPC-10 amplifier and the PatchMasterPro Software (HEKA Elektronik, Lambrecht, Germany). Current measurements were performed at a sampling rate of 20 kHz and currents were digitally filtered at 2.9 kHz. In all measurements, 70% of the series resistance was compensated. The standard internal solution contained (in mM): 100 CsAsp, 45 CsCl, 10 EGTA, 10 HEPES, 1 MgCl2 (pH 7.2 with CsOH) or 140 potassium gluconate, 5 EGTA, 1 MgCl2, 10 HEPES and 2 NaATP (pH 7.3 with CsOH) for the measurements of Gβγ mediated inhibition and the standard extracellular solution contained (in mM): 150 NaCl, 1 MgCl2, 10 HEPES (pH 7.4 with NaOH). The standard patch pipette resistance was between 2 MΩ and 4 MΩ when filled with pipette solution. In experiments allowing Ca^2+-dependent desensitization of TRPM3, Mg^2+ was replaced by Ca^2+ in the extracellular solution, and Cs^+ was replaced by Na^+ in the pipette solution. […] The chemical ligands were dissolved in bath solution from a stock diluted in DMSO.

Clc1ccccc1C(c1ccccc1)(c1ccccc1)n1ccnc1 [Clt, clotrimazole]
Activation of whole-cell currents in the absence of PS (Clt 10 µM): did not activate currents by itself | Effect on the response to PS (whole-cell currents) (Clt 10 µM, PS 40 µM): potentiated responses to PS

CCC1(c2ccccc2)C(=O)NCNC1=O [primidone]
Inhibition of PS-activated inward and outward currents (primidone 25 µM, PS 40 µM, ±80 mV, cells co-expressing µ-opioid receptor): full inhibition

pregnenolone sulfate [PS]
Activation of whole-cell currents (PS 40 µM): reversibly activated outwardly rectifying whole-cell currents
